We go through two compounds from US5843755A, “Group of antitumor compounds and method for producing the same” (Ajinomoto Co., Inc., priority 1996, dated 1998).

In brackets after ≈: the same amount, converted by molar mass.

One series has as its system P388. Description: Growth-inhibiting action on various cells (MTT), P388. The conditions noted are these: 72 h, P388, mouse leukemia, 2 × 10^4 cells/ml, 3 days, read-out: IC50 (concentration at which cell proliferation is inhibited by 50%). In kind it is cell-based. As for the experimental part:
(§1) The proliferation-inhibiting action of FE399 compounds obtained by purification, on various cells was measured under a condition shown below.
(§2) After that, FE399-P1 or FE399-P2 was added thereto at an appropriate concentration, followed by further cultivation for 3 days. However, as for P388 and K562, the FE399 compound group was added immediately after preparation of cell culture liquids. Each of the cultures was added with 10 μl of a solution of MTT (3-(4,5-dimethyl-2-thiazolyl)-2,5-diphenyl-2H-tetrazolium.Br, 5 mg/ml Dulbecco PBS(-)), followed by cultivation at 37° C. for 4 hours in the carbon dioxide gas incubator. After that, each of the cultures was added with 50 μl of 0.01N hydrochloric acid/20% SDS, and then the absorbance was measured at 570 nm by using a microplate reader (reference wavelength: 630 nm).

Another series has as its system K562T. Kind of series: Growth-inhibiting action on various cells (MTT), K562T. In kind it is cell-based. The conditions noted are these: 72 h, human leukemia, 4 × 10^4 cells/ml, 3 days, read-out: IC50 (concentration at which cell proliferation is inhibited by 50%). How it is done:
as §1, §2

A further series has as its system CHO-K1. Kind of series: Growth-inhibiting action on various cells (MTT), CHO-K1. Format: cell-based. The conditions noted are these: Cricetulus griseus, 72 h, CHO-K1, Chinese hamster ovary fibroblast, 1.5 × 10^4 cells/ml, 3 days, read-out: IC50 (concentration at which cell proliferation is inhibited by 50%). As for the experimental part: as §1, §2
A further series relates to Colon26. Kind of series: Growth-inhibiting action on various cells (MTT), Colon26. In kind it is cell-based. The conditions noted are these: Colon 26, 72 h, Colon26, mouse colon cancer, 5 × 10^4 cells/ml, 3 days, read-out: IC50 (concentration at which cell proliferation is inhibited by 50%). As for the experimental part:
as §1, §2

Series [1] can be described thus: Stability of the tautomers. Format: physicochemical. The conditions noted are these: tautomeric equilibrium in organic solvent such as acetonitrile, chloroform, acetic acid.
The next series can be described thus: Solubility. In kind it is physicochemical.
The next series deals with SW948. Kind of series: Growth-inhibiting action on various cells (MTT), SW948. In kind it is cell-based. The conditions noted are these: 72 h, SW948, human colon cancer, 5 × 10^4 cells/ml, 3 days, read-out: IC50 (concentration at which cell proliferation is inhibited by 50%). As for the experimental part:
as §1, §2

Series [2] concerns Mouse colon cancer cells (colon-26). Description: Anticancer effect on solid cancer, colon-26 transplanted subcutaneously to CDFI mice. The conditions noted are these: cisplatin 5 mg/kg on 7th, 11th and 15th day. Format: in vivo. How it is done: Mouse colon cancer cells (colon-26) subcultured in vivo subcutaneously in a CDFI mouse were excised from the subcutaneous portion of the mouse. The cells were minced and transplanted subcutaneously with a trocar to CDFI mice (female, 4 weeks old) so that the concentration was 10 mg/mouse. The day of the transplantation was designated as 0th day. On 7th day, the tumor size and the body weight were measured, and the mice were classified into groups with n=4. The tumor size was calculated as a tumor weight in accordance with the following arithmetic expression. [formula]
FE399 which was obtained by drying up the acetonitrile solution of FE399-1 isolated by the method described in Example 1 under a reduced precondition was administered to the mice described above in accordance with the following schedule. FE399 was administered intraperitoneally in an administration amount of 0.2 mL/mouse. FE399 was dissolved in dimethyl sulfoxide (DMSO) so that the concentration was 100 mg/ml. The concentration was adjusted with physiological saline containing 5% Tween 80 so that the administration amount was 4 mg/kg or 8 mg/kg. […]
The anticancer effect was evaluated on the basis of the tumor enhancement inhibitory ratio (IR) calculated from the tumor weight. IR was determined in accordance with the following arithmetic expression. […]

As to `CCCC1CCCCCCCC(=O)NC2CSSCC(NC2=O)C(=O)O1` (centres unmarked) [FE399-P1], the IC50 in the series with P388 was determined as 0.36 µg/mL (≈ 0.894 µM); in the series on K562T it was 0.31 µg/mL (≈ 0.77 µM); in the series on CHO-K1, 0.3 µg/mL (≈ 0.745 µM); in the series on Colon26, 0.4 µg/mL (≈ 0.994 µM); in the series with SW948, 0.15 µg/mL (≈ 0.373 µM). For the same compound, the “Stability among the group of the compounds” value in series [1] is listed as “relatively stable”. Also, the Solubility entry in “Solubility” (in dimethyl sulfoxide, chloroform, ethyl acetate, methanol, and acetonitrile) was “soluble”; in “Solubility” (in pyridine and acetic acid) it was “readily soluble”; in “Solubility” (in water), “scarcely soluble”.

Take `N.N.[Cl][Pt][Cl]` [cisplatin]: the “IR (tumor enhancement inhibitory ratio)” value in series [2] (15th day) amounted to 63; in series [2] (21st day) it was 73.
